Assay results reported in article PMC11372264, “^61Cu-PSMA–Targeted PET for Prostate Cancer: From Radiotracer Development to First-in-Human Imaging” (Journal of Nuclear Medicine, 2024).

Assays:
[1] = test system: LNCaP xenografts; experiment: Biodistribution in LNCaP xenografts; type: in vivo, mice
Experimental: All animal experiments were conducted in accordance with Swiss animal welfare laws and regulations under license number 30515 granted by the Veterinary Office, Department of Health, Canton Basel-Stadt, Switzerland. Male athymic nude-Foxn1^nu/Foxn1^+ mice (Envigo), 4–6 wk old, were inoculated subcutaneously on the shoulder with 10^7 LNCaP cells, freshly suspended in a 1:1 ratio of sterile minimum essential medium with basal medium Eagle and Matrigel. The tumors were allowed to grow to a volume of approximately 200 mm^3.
The biodistribution of [^61Cu]Cu-DOTAGA-PSMA-I&T and [^61Cu]Cu-NODAGA-PSMA-I&T (100 µL/200 pmol/2–3 MBq) was compared with that of [^68Ga]Ga-DOTAGA-PSMA-I&T, [^68Ga]Ga-NODAGA-PSMA-I&T, and [^68Ga]Ga-PSMA-11 (100 µL/200 pmol/3–5 MBq), as well as [^18F]PSMA-1007 (100 µL/70 pmol/15 MBq). This comparison was conducted at 1 h after injection for all radiotracers and at 4 h after injection for the ^61Cu-labeled tracers and [^18F]PSMA-1007. The specificity of the ^61Cu-labeled tracers was assessed at 1 h after injection by blocking studies with 2-(phosphonomethyl)pentanedioic acid (100 µL/1.3 µmol) being injected 3–5 min before the injection of the radiotracer.

[2] = Lipophilicity: distribution coefficient in 1:1 1-octanol/phosphate-buffered saline at pH 7.4; type: physicochemical
Experimental: The lipophilicity of [^61Cu]Cu-DOTAGA-PSMA-I&T and [^61Cu]Cu-NODAGA-PSMA-I&T was assessed by determining the distribution coefficient in a 1:1 mixture of 1-octanol–to–phosphate-buffered saline at pH 7.4, in comparison with all reference radiotracers. Inhibitory concentration of 50% (IC50) was assessed by competition binding on lymph node carcinoma of the prostate (LNCaP) using ((S)-1-carboxy-5-(4-(-^125I-iodo-benzamido)pentyl)carbamoyl)-L-glutamic acid as the reference radioligand. Cellular uptake and distribution were assessed in LNCaP cells at 5, 15, 30, 60, and 120 min after exposure to the radioligand at 37°C, either alone or in the presence of 10 µM 2-(phosphonomethyl)pentanedioic acid to distinguish between specific and nonspecific uptake.

[3] = test system: patient with metastatic prostate cancer; experiment: First-in-human PET/CT imaging; type: in vivo; conditions: 105 MBq/32 µg i.v., 3 h after tracer administration
Experimental: [^61Cu]Cu-NODAGA-PSMA-I&T was produced at the Nuclear Medicine Department of the Klinikum Rechts der Isar (Technical University of Munich) for human use. It was applied according to §13.2b of the German pharmaceutical law, and the requirement to obtain consent for the retrospective data analysis was waived. The manufacture of the tracer was performed via an automated process through a GE Healthcare FASTlab 2 module. Details on the production and quality controls are described in the supplemental materials. A dose of 105 MBq/32 µg was administered intravenously to a patient with known metastatic prostate cancer before ^177Lu-labeled PSMA radiopharmaceutical therapy. The patient was coinjected with 10 mg of furosemide (Lasix; Sanofi-Aventis). Imaging was performed 3 h after tracer administration on a Biograph Vision PET/CT scanner (Siemens Healthineers). Images were obtained from the skull to mid-thigh and reconstructed into multiplanar PET, CT, and fused PET/CT images. CT was used for attenuation correction.
FIGURE 4. Administration of [^61Cu]Cu-NODAGA-PSMA-I&T, in person with metastatic castration-resistant prostate cancer with disease progression, after abiraterone and docetaxel therapy before ^177Lu-labeled PSMA radiopharmaceutical therapy. Imaging was performed 3 h after tracer administration. […] Patient has also 1 kidney after left nephrectomy.

[4] = 1 h after injection, blocking with 2-(phosphonomethyl)pentanedioic acid 1.3 µmol

With `O=C([O-])CN1CCN(CC(=O)[O-])CCN(C(CCC(=O)N[C@H](Cc2ccc(O)c(I)c2)C(=O)N[C@H](Cc2ccccc2)C(=O)N[C@H](CCCCNC(=O)CCCCCCC(=O)NCCCC[C@H](NC(=O)N[C@@H](CCC(=O)O)C(=O)O)C(=O)O)C(=O)O)C(=O)O)CC1.[61Cu+2]` (stereo partly drawn) [[^61Cu]Cu-NODAGA-PSMA-I&T, NODAGA-(l-y)fk(sub-KuE)] the “Biodistribution, Adrenals” value ([1]; 1 h after injection) was 17.3 ± 3.26 %IA/g, the “Biodistribution, Blood” value ([1]; 1 h after injection) was 0.28 ± 0.06 %IA/g and the “Biodistribution, Femur” value ([1]; 1 h after injection) was 2.73 ± 0.91 %IA/g. The “Biodistribution, Heart” value ([1]; 1 h after injection) was 0.45 ± 0.15 %IA/g, the “Biodistribution, Intestine” value ([1]; 1 h after injection) was 2.11 ± 0.78 %IA/g and the “Biodistribution, Kidneys” value ([1]; 1 h after injection) was 118 ± 13 %IA/g. For the same compound, the “Biodistribution, Liver” value ([1]; 1 h after injection) was 1.02 ± 0.28 %IA/g, the “Biodistribution, Lung” value ([1]; 1 h after injection) was 1.69 ± 0.45 %IA/g and the “Biodistribution, Muscles” value ([1]; 1 h after injection) was 1.12 ± 0.32 %IA/g. The “Biodistribution, Pancreas” value ([1]; 1 h after injection) was 0.97 ± 0.36 %IA/g, the “Biodistribution, Salivary glands” value ([1]; 1 h after injection) was 2.01 ± 0.33 %IA/g and the “Biodistribution, Spleen” value ([1]; 1 h after injection) was 6.04 ± 1.87 %IA/g. For the same compound, the “Biodistribution, Stomach” value ([1]; 1 h after injection) was 1.13 ± 0.20 %IA/g, the “Biodistribution, Tumor (tumor uptake)” value ([1]; 1 h after injection) was 14.0 ± 5.0 %IA/g and the Tumor-to-Adrenals ratio ([1]; 1 h after injection) was 0.92 ± 0.20. The Tumor-to-Blood ratio ([1]; 1 h after injection) was 55.8 ± 20.0, the Tumor-to-Intestine ratio ([1]; 1 h after injection) was 7.87 ± 2.93 and the Tumor-to-Kidneys ratio ([1]; 1 h after injection) was 0.13 ± 0.03. The Tumor-to-Liver ratio ([1]; 1 h after injection) was 14.9 ± 4.9, the Tumor-to-Muscles ratio ([1]; 1 h after injection) was 13.6 ± 3.75 and the Tumor-to-Salivary glands ratio ([1]; 1 h after injection) was 7.83 ± 3.16. For the same compound, the Tumor-to-Spleen ratio ([1]; 1 h after injection) was 2.86 ± 1.37, the “Biodistribution, Adrenals” value [1, 4] was 0.95 ± 0.16 %IA/g and the “Biodistribution, Blood” value [1, 4] was 0.19 ± 0.01 %IA/g. For the same compound, the “Biodistribution, Femur” value [1, 4] was 0.39 ± 0.24 %IA/g, the “Biodistribution, Heart” value [1, 4] was 0.33 ± 0.03 %IA/g and the “Biodistribution, Intestine” value [1, 4] was 0.87 ± 0.10 %IA/g. For the same compound, the “Biodistribution, Kidneys” value [1, 4] was 4.59 ± 0.35 %IA/g, the “Biodistribution, Liver” value [1, 4] was 1.29 ± 0.21 %IA/g and the “Biodistribution, Lung” value [1, 4] was 0.67 ± 0.06 %IA/g. For the same compound, the “Biodistribution, Muscles” value [1, 4] was 0.32 ± 0.06 %IA/g, the “Biodistribution, Pancreas” value [1, 4] was 0.28 ± 0.17 %IA/g and the “Biodistribution, Salivary glands” value [1, 4] was 0.51 ± 0.20 %IA/g. For the same compound, the “Biodistribution, Spleen” value [1, 4] was 0.33 ± 0.08 %IA/g, the “Biodistribution, Stomach” value [1, 4] was 0.62 ± 0.04 %IA/g and the “Biodistribution, Tumor” value [1, 4] was 0.68 ± 0.55 %IA/g. For the same compound, the “Biodistribution, Adrenals” value ([1]; 4 h after injection) was 8.32 ± 2.87 %IA/g, the “Biodistribution, Blood” value ([1]; 4 h after injection) was 0.10 ± 0.03 %IA/g and the “Biodistribution, Femur” value ([1]; 4 h after injection) was 1.34 ± 0.48 %IA/g. For the same compound, the “Biodistribution, Heart” value ([1]; 4 h after injection) was 0.22 ± 0.05 %IA/g, the “Biodistribution, Intestine” value ([1]; 4 h after injection) was 1.06 ± 0.50 %IA/g and the “Biodistribution, Kidneys” value ([1]; 4 h after injection) was 90.9 ± 10.1 %IA/g. For the same compound, the “Biodistribution, Liver” value ([1]; 4 h after injection) was 0.72 ± 0.11 %IA/g, the “Biodistribution, Lung” value ([1]; 4 h after injection) was 0.74 ± 0.19 %IA/g and the “Biodistribution, Muscles” value ([1]; 4 h after injection) was 0.50 ± 0.22 %IA/g. For the same compound, the “Biodistribution, Pancreas” value ([1]; 4 h after injection) was 0.45 ± 0.09 %IA/g, the “Biodistribution, Salivary glands” value ([1]; 4 h after injection) was 0.52 ± 0.06 %IA/g and the “Biodistribution, Spleen” value ([1]; 4 h after injection) was 1.28 ± 0.39 %IA/g. The “Biodistribution, Stomach” value ([1]; 4 h after injection) was 0.66 ± 0.15 %IA/g, the “Biodistribution, Tumor (tumor uptake)” value ([1]; 4 h after injection) was 10.7 ± 3.3 %IA/g and the Tumor-to-Adrenals ratio ([1]; 4 h after injection) was 1.44 ± 0.65. The Tumor-to-Blood ratio ([1]; 4 h after injection) was 109 ± 43, the Tumor-to-Intestine ratio ([1]; 4 h after injection) was 12.5 ± 6.7 and the Tumor-to-Kidneys ratio ([1]; 4 h after injection) was 0.12 ± 0.03. It also gave a Tumor-to-Liver ratio ([1]; 4 h after injection) of 15.4 ± 5.7, a Tumor-to-Muscles ratio ([1]; 4 h after injection) of 25.4 ± 12.0 and a Tumor-to-Salivary glands ratio ([1]; 4 h after injection) of 19.5 ± 7.1. For the same compound, the Tumor-to-Spleen ratio ([1]; 4 h after injection) was 9.16 ± 3.84, the logDpH7.4 [2] was −2.95 ± 0.08 and the “SUVmax, kidney (right)” value [3] was 57.3. For the same compound, the “SUVmax, liver” value [3] was 6.5, the “SUVmax, salivary gland (right parotid gland)” value [3] was 20.5 and the “SUVmax, tumor lesion left liver lobe” value [3] was 23.6. For the same compound, the “SUVmax, tumor lesion right lower pubic bone” value [3] was 154.2, the “SUVmax, tumor lesion right scapula” value [3] was 86.4 and the “SUVmax, tumor lesion sacral bone” value [3] was 16.5. The “SUVmean, kidney (right)” value [3] was 37.9, the “SUVmean, liver” value [3] was 3.4 and the “SUVmean, salivary gland (right parotid gland)” value [3] was 12.6. For the same compound, the “SUVmean, tumor lesion left liver lobe” value [3] was 11.7, the “SUVmean, tumor lesion right lower pubic bone” value [3] was 83.7 and the “SUVmean, tumor lesion right scapula” value [3] was 55.3. For the same compound, the “SUVmean, tumor lesion sacral bone” value [3] was 9.9.
